Measured values as given in PubChem BioAssay AID256 (DTP/NCI, 2004).
“And” between values parts separate entries of the source, which are not always exact repeats. Identical values can stand only once. Toxic doses and inconclusive results are not listed.

Tested on: CD2F1 mice, L1210 leukemia ip, survival T/C
Assay: NCI In Vivo Anticancer Drug Screen. Data for tumor model L1210 Leukemia (intraperitoneal) in CD2F1 (CDF1) mice
Conditions: endpoint: mean survival time, higher = longer survival
Summary of the method: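 Antitumor effect is scored in animals hosting a serially transplanted tumor. Values compare compound-dosed animals against vehicle-only controls as a simple quotient.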

[1] = dose: 100.0 mg/kg/injection, schedule: Q04DX003 (ip), vehicle: saline with Tween-80
[2] = dose: 200.0 mg/kg/injection, schedule: Q04DX003 (ip), vehicle: saline with Tween-80
[3] = dose: 400.0 mg/kg/injection, schedule: Q04DX003 (ip), vehicle: saline with Tween-80
[4] = dose: 100.0 mg/kg/injection, schedule: Q01DX009 (ip), vehicle: saline with Tween-80
[5] = dose: 100.0 mg/kg/injection, schedule: Q01DX009 (ip), vehicle: Klucel (hydroxypropylcellulose) (HPC)
[6] = dose: 200.0 mg/kg/injection, schedule: Q01DX009 (ip), vehicle: Klucel (hydroxypropylcellulose) (HPC)
[7] = dose: 400.0 mg/kg/injection, schedule: Q01DX009 (ip), vehicle: Klucel (hydroxypropylcellulose) (HPC)
[8] = dose: 100.0 mg/kg/injection, schedule: Q01DX001 (ip), vehicle: saline with Tween-80
[9] = dose: 200.0 mg/kg/injection, schedule: Q01DX001 (ip), vehicle: saline with Tween-80
[10] = dose: 400.0 mg/kg/injection, schedule: Q01DX001 (ip), vehicle: saline with Tween-80
[11] = dose: 75.0 mg/kg/injection, schedule: Q01DX001 (ip), vehicle: saline
[12] = dose: 150.0 mg/kg/injection, schedule: Q01DX001 (ip), vehicle: saline
[13] = dose: 25.0 mg/kg/injection, schedule: Q01DX009 (ip), vehicle: Klucel (hydroxypropylcellulose) (HPC)
[14] = dose: 50.0 mg/kg/injection, schedule: Q01DX009 (ip), vehicle: Klucel (hydroxypropylcellulose) (HPC)

COC12[C@@H](COC(N)=O)C3=C(C(=O)C(C)=C(NCCSSCCNC4=C(C)C(=O)C5=C(C4=O)C(COC(N)=O)[C@]4(OC)C6[C@@H](CN54)N6C)C3=O)N1C[C@@H]1[C@H]2N1C (stereo partly specified)
T/C (dose: 6.0 mg/kg/injection, schedule: Q01DX001 (ip), vehicle: distilled water + Tween-80): 114 % of control

C=C(c1ccccc1)c1ccc(F)cc1
T/C (dose: 100.0 mg/kg/injection, schedule: Q01DX009 (ip), vehicle: saline sonified): 102 % of control | T/C [1]: 100 % of control | T/C (dose: 200.0 mg/kg/injection, schedule: Q01DX009 (ip), vehicle: saline sonified): 97 % of control | T/C [2]: 100 % of control | T/C (dose: 400.0 mg/kg/injection, schedule: Q01DX009 (ip), vehicle: saline sonified): 103 % of control | T/C [3]: 102 % of control

CCCCCCCCCCCC(=O)NC1CC(O[C@H]2C[C@](O)(C(=O)CO)Cc3c(O)c4c(c(O)c32)C(=O)c2c(OC)cccc2C4=O)OC(C)C1O (stereo partly specified)
T/C (dose: 1.5 mg/kg/injection, schedule: Q01DX009 (ip), vehicle: saline with Tween-80): 108 % of control | T/C (dose: 1.5 mg/kg/injection, schedule: Q01DX009 (ip), vehicle: saline): 104 % of control | T/C (dose: 3.0 mg/kg/injection, schedule: Q01DX009 (ip), vehicle: saline with Tween-80): 98 % of control | T/C (dose: 3.0 mg/kg/injection, schedule: Q01DX009 (ip), vehicle: saline): 113 % of control | T/C (dose: 6.0 mg/kg/injection, schedule: Q01DX009 (ip), vehicle: saline with Tween-80): 105 % of control | T/C (dose: 6.0 mg/kg/injection, schedule: Q01DX009 (ip), vehicle: saline): 113 % of control | T/C (dose: 6.25 mg/kg/injection, schedule: Q01DX009 (ip), vehicle: distilled water + Tween-80): 105 % of control | T/C (dose: 12.0 mg/kg/injection, schedule: Q01DX009 (ip), vehicle: saline with Tween-80): 107 % of control | T/C (dose: 12.5 mg/kg/injection, schedule: Q01DX009 (ip), vehicle: distilled water + Tween-80): 105 % of control | T/C (dose: 24.0 mg/kg/injection, schedule: Q01DX009 (ip), vehicle: saline with Tween-80): 112 % of control | T/C (dose: 24.0 mg/kg/injection, schedule: Q01DX009 (ip), vehicle: saline): 116 % of control | T/C (dose: 25.0 mg/kg/injection, schedule: Q01DX009 (ip), vehicle: distilled water + Tween-80): 112 % of control | T/C (dose: 48.0 mg/kg/injection, schedule: Q01DX009 (ip), vehicle: saline with Tween-80): 97 % of control | T/C (dose: 50.0 mg/kg/injection, schedule: Q01DX009 (ip), vehicle: distilled water + Tween-80): 116 % of control

COC(=O)CC(=O)c1ccc(OC(C)C)cc1
T/C [4]: 100 % of control | T/C [1]: 87 % of control | T/C (dose: 200.0 mg/kg/injection, schedule: Q01DX009 (ip), vehicle: saline with Tween-80): 107 % of control | T/C [2]: 90 % of control | T/C (dose: 400.0 mg/kg/injection, schedule: Q01DX009 (ip), vehicle: saline with Tween-80): 104 % of control | T/C [3]: 87 % of control

O=C1/C(=C/c2ccccc2[N+](=O)[O-])CCc2ccccc21
T/C [5]: 97 % of control | T/C [6]: 91 % of control | T/C [7]: 96 % of control

Cc1cc(N)c(O)cc1C
T/C (dose: 100.0 mg/kg/injection, schedule: Q01DX009 (ip), vehicle: saline): 96 % of control

CCO/C=C1\SC(=S)N(Cc2ccccc2)C1=O
T/C (dose: 25.0 mg/kg/injection, schedule: Q01DX009 (ip), vehicle: other): 105 % of control | T/C (dose: 50.0 mg/kg/injection, schedule: Q01DX009 (ip), vehicle: other): 115 % of control | T/C [4]: 89 % of control

O=C(COc1cccc(Cl)c1)NCc1ccccc1NC(=O)c1ccc(S(=O)(=O)F)cc1
T/C [8]: 91 % of control | T/C [9]: 95 % of control | T/C [10]: 91 % of control

O=c1[nH]cnc2[nH]ccc12
T/C [11]: 110 % of control | T/C [12]: 96 % of control

O=C1c2ccccc2C(=O)N1c1ccc(Br)cc1
T/C (dose: 100.0 mg/kg/injection, schedule: Q01DX001 (ip), vehicle: Klucel (hydroxypropylcellulose) (HPC)): 100 % of control | T/C (dose: 400.0 mg/kg/injection, schedule: Q01DX001 (ip), vehicle: Klucel (hydroxypropylcellulose) (HPC)): 96 % of control

CC(=O)Oc1ccc2c3c(ccc2c1)CCCC3
T/C [13]: 116 % of control | T/C [14]: 93 % of control | T/C [5]: 104 % of control

O/N=C/c1ccc(O)cc1
T/C (dose: 50.0 mg/kg/injection, schedule: Q04DX003 (ip), vehicle: saline with Tween-80): 94 % of control | T/C [1]: 91 % of control | T/C [2]: 97 % of control

OC1CCCCC(O)CCCC1 (stereo unspecified)
T/C [8]: 110 % of control | T/C (dose: 100.0 mg/kg/injection, schedule: Q04DX002 (ip), vehicle: saline with Tween-80): 95 % of control | T/C [9]: 116 % of control | T/C (dose: 200.0 mg/kg/injection, schedule: Q04DX002 (ip), vehicle: saline with Tween-80): 98 % of control | T/C [10]: 118 % of control | T/C (dose: 400.0 mg/kg/injection, schedule: Q04DX002 (ip), vehicle: saline with Tween-80): 101 % of control

Nc1ccccc1C1=Nc2cncnc2NC1
T/C [11]: 104 % of control | T/C [12]: 102 % of control | T/C (dose: 300.0 mg/kg/injection, schedule: Q01DX001 (ip), vehicle: saline): 93 % of control

CC/C(=N/NS(=O)(=O)c1ccc(C)cc1)C(=O)O
T/C (dose: 12.5 mg/kg/injection, schedule: Q01DX009 (ip), vehicle: Klucel (hydroxypropylcellulose) (HPC)): 101 % of control | T/C [13]: 98 % of control | T/C [14]: 91 % of control | T/C [5]: 96 % of control | T/C [6]: 93 % of control | T/C [7]: 91 % of control

O=C1NC(=O)C2(CCc3ccc(N(CCCl)CCCl)cc32)N1 (stereo unspecified)
T/C (dose: 6.25 mg/kg/injection, schedule: Q01DX009 (ip), vehicle: Klucel (hydroxypropylcellulose) (HPC)): 117 % of control | T/C (dose: 6.25 mg/kg/injection, schedule: Q01DX009 (oral), vehicle: saline with Tween-80): 96 % of control and 97 % of control | T/C (dose: 12.5 mg/kg/injection, schedule: Q01DX009 (oral), vehicle: saline with Tween-80): 100 % of control and 105 % of control | T/C [13]: 154 % of control and 157 % of control | T/C (dose: 25.0 mg/kg/injection, schedule: Q01DX009 (oral), vehicle: saline with Tween-80): 102 % of control and 104 % of control | T/C [14]: 122 % of control and 103 % of control | T/C (dose: 50.0 mg/kg/injection, schedule: Q01DX009 (oral), vehicle: saline with Tween-80): 100 % of control and 104 % of control | T/C [5]: 97 % of control | T/C (dose: 100.0 mg/kg/injection, schedule: Q01DX009 (oral), vehicle: saline with Tween-80): 107 % of control and 109 % of control | T/C (dose: 200.0 mg/kg/injection, schedule: Q01DX009 (oral), vehicle: saline with Tween-80): 106 % of control and 110 % of control

NC(N)=N/N=C\c1ccc(/C=N/N=C(N)N)cc1
T/C (dose: 3.0 mg/kg/injection, schedule: Q01DX010 (ip), vehicle: saline): 102 % of control | T/C (dose: 5.0 mg/kg/injection, schedule: Q01DX010 (ip), vehicle: saline): 106 % of control | T/C (dose: 8.0 mg/kg/injection, schedule: Q01DX010 (ip), vehicle: saline): 110 % of control | T/C (dose: 12.0 mg/kg/injection, schedule: Q01DX010 (ip), vehicle: saline): 112 % of control
